Key:
KCNQ5 = KCNQ5 (Homo sapiens, UniProt Q9NR82); experiment: TEVC of KCNQ5 homomers expressed in Xenopus laevis oocytes; format: cell-based
Excerpt: (§1) We generated cRNA transcripts encoding human KCNQ1, 2, 3, and 5 (wild-type and mutant) by in vitro transcription using the mMessage mMachine kit (Thermo Fisher Scientific, Waltham, MA, USA) according to manufacturer’s instructions, after vector linearization, from cDNA sub-cloned into expression vectors (pTLNx and pXOOM) incorporating Xenopus laevis β-globin 5’ and 3’ UTRs flanking the coding region to enhance translation and cRNA stability. Mutant KCNQ cDNAs were generated by Genscript (Piscataway, NJ, USA) and cRNAs made as above. We injected defolliculated stage V and VI Xenopus laevis oocytes (Xenoocyte, Dexter, MI, USA) with KCNQ cRNAs (2–10 ng) and incubated the oocytes at 16 °C in ND96 oocyte storage solution containing penicillin and streptomycin, with daily washing, for 2–4 days prior to two-electrode voltage-clamp (TEVC) recording.
(§2) We performed TEVC at room temperature using an OC-725C amplifier (Warner Instruments, Hamden, CT, USA) and pClamp10 software (Molecular Devices, Sunnyvale, CA, USA) 2–4 days after cRNA injection. We placed oocytes in a small-volume oocyte bath (Warner) and viewed them with a dissection microscope for cellular electrophysiology. We sourced chemicals from Sigma-Aldrich (St. Louis, MO, USA) and Combi-Blocks (San Diego, CA, USA). We studied effects of Salvia rosmarinus extracts and of compounds, solubilized directly in bath solution (in mM): 96 NaCl, 4 KCl, 1 MgCl2, 1 CaCl2, 10 HEPES (pH 7.6). We introduced extracts or compounds into the oocyte recording bath by gravity perfusion at a constant flow of 1 ml per minute for 3 min prior to recording. Pipettes were of 1-2 MΩ resistance when filled with 3 M KCl. We recorded currents in response to voltage pulses between −120 mV and +40 mV at 10 mV intervals from a holding potential of −80 mV, to yield current-voltage relationships and examine activation kinetics. We analyzed data using Clampfit (Molecular Devices) and Graphpad Prism software (GraphPad, San Diego, CA, USA), stating values as mean ± SEM. We plotted raw or normalized tail currents versus prepulse voltage and fitted with a single Boltzmann function:1 g=(A1−A2)/1+exp[V1/2−V/Vs]y+A2 where g is the normalized tail conductance, A1 is the initial value at -∞, A2 is the final value at +∞, V1/2 is the half-maximal voltage of activation and Vs the slope factor. We fitted activation and deactivation kinetics with single exponential functions.

KCNQ3*-R242A = KCNQ3*-R242A (Homo sapiens, UniProt O43525, A315T/R242A); experiment: TEVC of mutant KCNQ3*-R242A in oocytes; format: cell-based
Excerpt: as §1, §2

KCNQ3*-R243A = KCNQ3*-R243A (Homo sapiens, UniProt O43525, A315T/R243A); experiment: TEVC of mutant KCNQ3*-R243A in oocytes; format: cell-based; conditions: 100 µM
Excerpt: as §1
We performed TEVC at room temperature using an OC-725C amplifier (Warner Instruments, Hamden, CT, USA) and pClamp10 software (Molecular Devices, Sunnyvale, CA, USA) 2–4 days after cRNA injection. […] We recorded currents in response to voltage pulses between −120 mV and +40 mV at 10 mV intervals from a holding potential of −80 mV, to yield current-voltage relationships and examine activation kinetics. We analyzed data using Clampfit (Molecular Devices) and Graphpad Prism software (GraphPad, San Diego, CA, USA), stating values as mean ± SEM. […]

KCNQ3*-W265L = KCNQ3*-W265L (Homo sapiens, UniProt O43525, A315T/W265L); experiment: TEVC of mutant KCNQ3*-W265L in oocytes; format: cell-based
Excerpt: as §1
as §2, with “We recorded currents in response to voltage pulses between −120 mV and +40 mV at 10 mV intervals from a holding potential of −80 mV, to yield current-voltage relationships and examine activation kinetics.” left out

KCNQ3*-P211A = KCNQ3*-P211A (Homo sapiens, UniProt O43525, A315T/P211A); experiment: TEVC of mutant KCNQ3*-P211A in oocytes; format: cell-based
Excerpt: as §1, §2

KCNQ3*-L198F = KCNQ3*-L198F (Homo sapiens, UniProt O43525, A315T/L198F); experiment: TEVC of mutant KCNQ3*-L198F in oocytes; format: cell-based
Excerpt: as §1
as §2, with “We recorded currents in response to voltage pulses between −120 mV and +40 mV at 10 mV intervals from a holding potential of −80 mV, to yield current-voltage relationships and examine activation kinetics.” left out

mice = conditions: acute toxicity; cited from earlier work

## CC(C)c1cc2c(c(O)c1O)[C@@]1(C(=O)O)CCCC(C)(C)[C@@H]1CC2 [Carnosic acid, carnosic acid]
KCNQ5; 0.1 µM
  V0.5 Normalized tail current: -42.57 ± 0.34 mV
KCNQ5; 1 µM
  V0.5 Normalized tail current: -42.20 ± 0.27 mV
KCNQ5; 3 µM
  V0.5 Normalized tail current: -42.54 ± 0.31 mV
KCNQ5; 10 µM
  V0.5 Normalized tail current: -43.64 ± 0.36 mV
KCNQ5; 30 µM
  V0.5 Normalized tail current: -45.91 ± 0.40 mV
KCNQ5; 100 µM
  V0.5 Normalized tail current: -50.99 ± 0.49 mV
  constitutively activated current at −120 mV: ~ 5%
KCNQ5; EC50 EM
  EC50: 43.4 ± 0.28 µM
KCNQ5; EC50 V0.5 Activation
  EC50: 231 ± 75 µM
KCNQ3*-R242A
  EC50: 8.31 ± 0.14 µM
KCNQ3*-R242A; 0.1 µM
  V0.5 Normalized tail current: -21.11 ± 0.68 mV
KCNQ3*-R242A; 1 µM
  V0.5 Normalized tail current: -24.52 ± 0.42 mV
KCNQ3*-R242A; 3 µM
  V0.5 Normalized tail current: -27.59 ± 0.38 mV
KCNQ3*-R242A; 10 µM
  V0.5 Normalized tail current: -30.42 ± 0.37 mV
KCNQ3*-R242A; 30 µM
  V0.5 Normalized tail current: -35.30 ± 0.41 mV
KCNQ3*-R242A; 100 µM
  Slope: 8.88 ± 0.59 mV
KCNQ3*-R242A; dose-response
  efficacy in terms of ΔV0.5act versus KCNQ3*: halved
KCNQ3*-R243A
  Slope: 9.48 ± 0.54 mV
  V0.5 Normalized tail current: -64.93 ± 0.61 mV
KCNQ3*-W265L; 0.1 µM
  V0.5 Normalized tail current: -75.60 ± 1.02 mV
KCNQ3*-W265L; 1 µM
  V0.5 Normalized tail current: -86.19 ± 1.09 mV
KCNQ3*-W265L; 3 µM
  V0.5 Normalized tail current: -96.66 ± 1.64 mV
KCNQ3*-W265L; 10 µM
  V0.5 Normalized tail current: -105.3 ± 2.56 mV
KCNQ3*-W265L; 100 µM
  V0.5 Normalized tail current: -146.0 ± 1.92 mV
KCNQ3*-W265L; EC50 EM
  EC50: 0.14 ± 0.03 µM
KCNQ3*-W265L; EC50 V0.5 Activation
  EC50: 2.11 ± 0.09 µM
KCNQ3*-W265L; dose-response
  sensitivity in terms of potency versus KCNQ3*: approximately fivefold
KCNQ3*-P211A; 0.1 µM
  V0.5 Normalized tail current: -55.16 ± 1.00 mV
KCNQ3*-P211A; 1 µM
  V0.5 Normalized tail current: -59.20 ± 1.17 mV
KCNQ3*-P211A; 3 µM
  V0.5 Normalized tail current: -61.55 ± 1.44 mV
KCNQ3*-P211A; 10 µM
  V0.5 Normalized tail current: -78.35 ± 1.93 mV
KCNQ3*-P211A; 30 µM
  V0.5 Normalized tail current: -98.23 ± 4.44 mV
KCNQ3*-P211A; 100 µM
  V0.5 Normalized tail current: -110.7 ± 3.83 mV
KCNQ3*-P211A; EC50 EM
  EC50: 3.21 ± 0.21 µM
KCNQ3*-P211A; EC50 V0.5 Activation
  EC50: 15.25 ± 0.07 µM
KCNQ3*-P211A; dose-response
  carnosic acid efficacy and potency compared with KCNQ3*: very similarly
KCNQ3*-L198F; 0.1 µM
  V0.5 Normalized tail current: -58.22 ± 0.59 mV
KCNQ3*-L198F; 1 µM
  V0.5 Normalized tail current: -62.90 ± 0.79 mV
KCNQ3*-L198F; 3 µM
  V0.5 Normalized tail current: -73.56 ± 0.79 mV
KCNQ3*-L198F; 10 µM
  V0.5 Normalized tail current: -91.66 ± 1.99 mV
KCNQ3*-L198F; 30 µM
  V0.5 Normalized tail current: -116.6 ± 3.44 mV
KCNQ3*-L198F; EC50 EM
  EC50: 1.15 ± 0.12 µM
KCNQ3*-L198F; EC50 V0.5 Activation
  EC50: 6.28 ± 0.08 µM
KCNQ3*-L198F; dose-response
  carnosic acid efficacy and potency compared with KCNQ3*: very similarly
mice
  oral LD50: 7100 mg/kg
